Data published in patent US7501415B2, “Selective inhibitors of ERK protein kinase and uses thereof” (Vertex Pharmaceuticals Incorporated, priority 2004, dated 2009).

These molecules were tested against activated ERK2 (Homo sapiens, UniProt P28482) (assay: ERK2 inhibition assay, spectrophotometric coupled-enzyme assay). Conditions: activated ERK2 10 nM, 65 μM ATP, 200 μM erktide peptide, 30° C., pH 7.5.
Assay type: biochemical
Description: In this assay, a fixed concentration of activated ERK2 (10 nM) was incubated with various concentrations of a compound of the present invention in DMSO (2.5%) for 10 min. at 30° C. in 0.1 M HEPES buffer (pH 7.5), containing 10 mM MgCl2, 2.5 mM phosphoenolpyruvate, 200 μM NADH, 150 μg/ml pyruvate kinase, 50 μg/ml lactate dehydrogenase, and 200 μM erktide peptide.

Chain of activated ERK2 (P28482 whole entry): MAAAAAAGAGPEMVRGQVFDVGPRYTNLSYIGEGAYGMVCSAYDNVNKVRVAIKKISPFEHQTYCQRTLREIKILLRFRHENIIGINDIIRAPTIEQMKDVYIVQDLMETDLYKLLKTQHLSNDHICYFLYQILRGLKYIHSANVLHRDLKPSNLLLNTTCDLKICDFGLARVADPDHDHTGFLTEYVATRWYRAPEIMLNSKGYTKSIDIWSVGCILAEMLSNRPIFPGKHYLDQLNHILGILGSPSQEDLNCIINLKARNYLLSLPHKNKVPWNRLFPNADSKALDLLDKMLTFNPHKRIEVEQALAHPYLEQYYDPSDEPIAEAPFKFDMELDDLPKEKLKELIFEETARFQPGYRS

Question: `Cc1cnc(Nc2ccc(Cl)cc2Cl)nc1-c1c[nH]c(C(=O)NC(CO)c2ccccc2)c1` (centres unmarked) [Compound I-3] was tested. Which Ki did it give?
Answer: The Ki was under 100 nM.

Question: For `Cc1cnc(Nc2ccc([N+](=O)[O-])cc2Cl)nc1-c1c[nH]c(C(=O)NC(CO)c2ccccc2)c1` (centres unmarked) [Compound I-4], which Ki is on record?
Answer: Its Ki is under 100 nM.

Question: How did the Ki turn out when `Cc1cnc(Nc2cccc(Cl)c2Cl)nc1-c1c[nH]c(C(=O)NC(CO)c2ccccc2)c1` (centres unmarked) [Compound I-6] was run?
Answer: The Ki was under 100 nM.

Question: How did the Ki turn out when `Cc1cnc(Nc2c(Cl)cccc2Cl)nc1-c1c[nH]c(C(=O)NC(CO)c2ccccc2)c1` (centres unmarked) [Compound I-8] was run?
Answer: Its Ki is over 100 nM.

Question: Which Ki does the source give for `Cc1cnc(Nc2c(C)cccc2Cl)nc1-c1c[nH]c(C(=O)NC(CO)c2ccccc2)c1` (centres unmarked) [Compound I-9] here?
Answer: The Ki was over 100 nM.

Question: How did the Ki turn out when `Cc1cccc(C(CO)NC(=O)c2cc(-c3nc(Nc4ccccc4Cl)ncc3C)c[nH]2)c1` (centres unmarked) [Compound I-10] was run?
Answer: The Ki was under 100 nM.

Question: For `Cc1cnc(Nc2ccccc2Cl)nc1-c1c[nH]c(C(=O)NC(CO)c2cccc(C(F)(F)F)c2)c1` (centres unmarked) [Compound I-11], which Ki is on record?
Answer: Its Ki is under 100 nM.

Question: How did the Ki turn out when `Cc1cnc(Nc2c(F)cccc2Cl)nc1-c1c[nH]c(C(=O)NC(CO)c2ccccc2)c1` (centres unmarked) [Compound I-12] was run?
Answer: Its Ki is under 100 nM.
